Laboratory results from patent publication US10647721B2, “Bicyclic heteroaryl derivatives” (Hoffmann-La Roche Inc., priority 2016, dated 2020).

Test system: γ-secretase
Test: Cellular γ-secretase assay (inhibition of Aβ42 secretion, AlphaLisa)
Format: cell-based
Conditions: human neuroglioma H4 cells overexpressing human APP695 Swedish double mutation, 24 hr compound incubation
Procedure: Cellular γ-Secretase Assay
Human neuroglioma H4 cells overexpressing human APP695 with the Swedish double mutation (K595N/M596L) were plated at 30,000 cells/well/100 μl in 96-well plates in IMDM media containing 10% FCS, 0.2 mg/l Hygromycin B and incubated at 37° C., 5% CO2.
3-4 hr post plating, compounds are a diluted in media and 50 μl is added as 1.5-fold concentrate to achieve the final concentration. Compound incubation is performed for 24 hr. Final doses typically range from 4 μm down to 0.0013 μm in half-log steps resulting in a eight point dose response curve.
Appropriate controls using vehicle only and reference compound were applied to this assay. The final concentration of Me2SO was 0.4%.
After incubation at 37° C., 5% CO2, the supernatant was subjected to quantification of secreted Aβ42 by the means of an AlphaLisa assay kit (Human Amyloid beta 1-42 Kit: Cat # AL203C, Perkin Elmer). 20 μl of the cell culture supernatant was transferred to an assay plate. Then 10 μl of a mixture of the AlphaLisa coupled capture antibody and the biotinylated detection antibody was added and incubated for 3 hours at room temperature while softly shaking the assay plate. After a further addition of 20 μl of the Donor beads the assay plate was incubated for 30 min at room temperature and constant shaking without exposure to direct light. The assay plate was then read on a Paradigm AlphaLisa Reader using the build-in program with excitation at 680 nm and emission at […].
The measured signals were then used to calculate IC50 values for inhibition of Aβ42 secretion by nonlinear regression fit analysis using XLfit 5.3 software (IDBS).

EC50 [µM] | SMILES
0.0143 | COc1cc(Nc2nc3n(n2)CCCN3c2ccc(F)c(F)c2)ccc1-c1cnc(C)o1 [Example 4, 4-(3,4-difluorophenyl)-N-[3-methoxy-4-(2-methyloxazol-5-yl)phenyl]-6,7-dihydro-5H-[1,2,4]triazolo[1,5-a]pyrimidin-2-amine]
0.0399 | Fc1ccc(N2CCCn3nc(Nc4ccc(-n5cnc(Cl)c5)c(F)c4)nc32)cc1 [Example 36, N-[4-(4-chloroimidazol-1-yl)-3-fluoro-phenyl]-4-(4-fluorophenyl)-6,7-dihydro-5H-[1,2,4]triazolo[1,5-a]pyrimidin-2-amine]
0.0225 | Fc1ccc(N2CCCn3nc(Nc4ccc(-n5cnc(Cl)c5)c(F)c4)nc32)cc1F [Example 18, N-[4-(4-chloroimidazol-1-yl)-3-fluoro-phenyl]-4-(3,4-difluorophenyl)-6,7-dihydro-5H-[1,2,4]triazolo[1,5-a]pyrimidin-2-amine]
0.009 | N#Cc1cc(Nc2nc3n(n2)CCCN3c2ccc(F)c(F)c2)ccc1-n1cnc(Cl)c1 [Example 24, 2-(4-chloroimidazol-1-yl)-5-[[4-(3,4-difluorophenyl)-6,7-dihydro-5H-[1,2,4]triazolo[1,5-a]pyrimidin-2-yl]amino]benzonitrile]
0.0142 | COc1cc(Nc2nc3n(n2)CCCN3c2ccc(F)c(F)c2)ccc1-n1cnc(C)n1 [Example 2, 4-(3,4-difluorophenyl)-N-[3-methoxy-4-(3-methyl-1,2,4-triazol-1-yl)phenyl]-6,7-dihydro-5H-[1,2,4]triazolo[1,5-a]pyrimidin-2-amine]
0.0345 | Cc1ncn(-c2ccc(Nc3nc4n(n3)CCCN4c3ccc(F)c(F)c3)cc2F)n1 [Example 11, 4-(3,4-difluorophenyl)-N-[3-fluoro-4-(3-methyl-1,2,4-triazol-1-yl)phenyl]-6,7-dihydro-5H-[1,2,4]triazolo[1,5-a]pyrimidin-2-amine]
